The results in this text go back to ChEMBL document CHEMBL1149423, “Novel phenylamino acetamide derivatives as potent and selective kappa opioid receptor agonists” (Bioorg Med Chem Lett, 2006).

Structures are written as SMILES.

In test [1] the target is T1, Kappa-type opioid receptor (Homo sapiens, UniProt P41145). Description: Binding affinity to kappa opioid receptor.
The target in test [2] is T1, Kappa-type opioid receptor. As to the kind of experiment: Agonist activity at kappa opioid receptor in a [35S]GTP-gamma-S functional assay.
Test [3] concerns the target Opioid receptors; mu & kappa (Homo sapiens) (UniProt P41145+P35372). As to the kind of experiment: Selectivity for kappa opioid receptor over mu opioid receptor. The test is classed as protein assay.
The target in test [4] is Opioid receptors; delta & kappa (Homo sapiens) (UniProt P41145+P41143). As to the kind of experiment: Selectivity for kappa opioid receptor over delta opioid receptor. The test is classed as protein assay.
Chain of Opioid receptors; delta & kappa (Homo sapiens) (P41143 whole entry, looked up): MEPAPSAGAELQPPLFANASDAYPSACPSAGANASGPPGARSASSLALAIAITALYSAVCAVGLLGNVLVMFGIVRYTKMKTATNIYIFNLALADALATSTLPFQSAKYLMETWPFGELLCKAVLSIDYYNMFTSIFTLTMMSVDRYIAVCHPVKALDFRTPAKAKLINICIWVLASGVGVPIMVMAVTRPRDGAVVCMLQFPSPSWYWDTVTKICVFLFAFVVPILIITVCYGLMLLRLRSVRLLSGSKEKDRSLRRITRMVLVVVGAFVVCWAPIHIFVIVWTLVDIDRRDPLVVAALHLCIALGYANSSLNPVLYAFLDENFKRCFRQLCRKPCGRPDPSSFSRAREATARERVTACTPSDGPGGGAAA
Chain of Opioid receptors; delta & kappa (Homo sapiens) (P41145 whole entry, looked up): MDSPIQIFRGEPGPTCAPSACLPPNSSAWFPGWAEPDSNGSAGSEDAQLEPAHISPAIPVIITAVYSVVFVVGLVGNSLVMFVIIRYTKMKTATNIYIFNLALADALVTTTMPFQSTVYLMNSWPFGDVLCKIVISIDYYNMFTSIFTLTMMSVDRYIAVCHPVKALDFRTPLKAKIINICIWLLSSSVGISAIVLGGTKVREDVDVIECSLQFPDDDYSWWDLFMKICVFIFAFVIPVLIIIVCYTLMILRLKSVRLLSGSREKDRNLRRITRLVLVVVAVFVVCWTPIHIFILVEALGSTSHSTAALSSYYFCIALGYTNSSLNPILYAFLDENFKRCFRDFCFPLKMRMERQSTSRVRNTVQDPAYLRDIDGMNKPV
In another test the target is Cytochrome P450 2D6 (Homo sapiens, UniProt P10635). Description: Inhibitory activity against CYP2D6. The test is classed as ADME.
Chain of Cytochrome P450 2D6 (P10635 whole entry): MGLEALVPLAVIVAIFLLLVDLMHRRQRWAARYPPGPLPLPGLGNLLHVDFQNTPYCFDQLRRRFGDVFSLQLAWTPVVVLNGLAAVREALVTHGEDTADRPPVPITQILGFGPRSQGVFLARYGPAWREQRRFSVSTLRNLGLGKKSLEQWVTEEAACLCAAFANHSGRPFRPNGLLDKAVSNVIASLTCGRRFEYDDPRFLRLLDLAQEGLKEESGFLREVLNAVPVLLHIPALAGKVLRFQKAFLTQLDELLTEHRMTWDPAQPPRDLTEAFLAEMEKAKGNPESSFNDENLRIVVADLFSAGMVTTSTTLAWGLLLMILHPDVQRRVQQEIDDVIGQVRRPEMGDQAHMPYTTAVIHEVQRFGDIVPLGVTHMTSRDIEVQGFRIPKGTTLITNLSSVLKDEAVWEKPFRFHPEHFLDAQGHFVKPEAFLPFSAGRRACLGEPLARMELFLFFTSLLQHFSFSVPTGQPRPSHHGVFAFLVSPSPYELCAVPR
A further test concerns the target Mu-type opioid receptor (Homo sapiens, UniProt P35372). As to the kind of experiment: Binding affinity to mu opioid receptor.
The next test is filed under the species Rattus norvegicus. Description: Antinociception in rat at 300 ug given intrapaw in late phase formalin-induced flinching assay. The test is classed as functional.
The next test concerns Mus musculus. As to the kind of experiment: Inhibition of acetic acid-induced writhing in mice after sc administration. The test is classed as functional.

T1 sequence (P41145 whole entry): as the sequence (P41145 whole entry, looked up) above
Chain of Opioid receptors; mu & kappa (Homo sapiens) (P35372 whole entry, looked up): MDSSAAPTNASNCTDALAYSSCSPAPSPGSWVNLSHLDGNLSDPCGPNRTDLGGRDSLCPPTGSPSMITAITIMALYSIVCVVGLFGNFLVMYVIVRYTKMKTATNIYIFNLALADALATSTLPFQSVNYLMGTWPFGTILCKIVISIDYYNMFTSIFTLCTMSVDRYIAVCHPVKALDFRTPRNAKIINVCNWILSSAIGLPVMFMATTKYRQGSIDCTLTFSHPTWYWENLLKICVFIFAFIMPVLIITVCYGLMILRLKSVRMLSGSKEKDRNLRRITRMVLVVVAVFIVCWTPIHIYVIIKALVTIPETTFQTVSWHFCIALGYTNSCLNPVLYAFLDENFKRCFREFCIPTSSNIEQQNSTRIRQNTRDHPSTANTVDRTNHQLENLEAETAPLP
Chain of Opioid receptors; mu & kappa (Homo sapiens) (P41145 whole entry, looked up): as the sequence (P41145 whole entry, looked up) above
Chain of Mu-type opioid receptor (P35372 whole entry): as the sequence (P35372 whole entry, looked up) above

In test [1], `CN(C(=O)CNc1cccc(C#N)c1)[C@H](CN1CC[C@H](O)C1)c1ccccc1` showed an inhibitory constant (Ki) of 0.5 nM. Further, the EC50 in test [2] came out at 0.58 nM. The Ratio in test [3] was 1140; in test [4] it was 66. In addition, at Cytochrome P450 2D6, the IC50 was found to be 3000 nM.

Molecule `CN(CC(=O)N(C)[C@H](CN1CC[C@H](O)C1)c1ccccc1)c1ccccc1` returned a Ki in test [1] of 0.32 nM. In test [2], this molecule displayed an EC50 of 0.23 nM. In addition, the figures for the Ratio in test [3] and in test [4] were 1660 and 169, respectively. Further, the IC50 against Cytochrome P450 2D6 worked out at 530 nM.

Consider `CN(C(=O)CNc1ccccc1CNS(C)(=O)=O)[C@H](CN1CC[C@H](O)C1)c1ccccc1`, for which, in test [1], the Ki was determined as 0.78 nM. The same molecule showed an EC50 in test [2] of 0.52 nM. Further, the values for the Ratio in test [3] and in test [4] were 85 and 10, respectively. At Cytochrome P450 2D6, this molecule registered an IC50 of 1500 nM.

`CN(C(=O)CNc1ccc(Cl)c(Cl)c1)[C@H](CN1CC[C@H](O)C1)c1ccccc1` returned a Ki in test [1] of 0.11 nM. The same molecule showed an EC50 in test [2] of 0.27 nM. The values for the Ratio in test [3] and in test [4] were 427 and 91, respectively. Further, inhibition against Cytochrome P450 2D6 was half-maximal at 760 nM (IC50).

On to `CN(C(=O)CNc1ccc(CNS(C)(=O)=O)cc1)[C@H](CN1CC[C@H](O)C1)c1ccccc1`, for which the Ki in test [1] worked out at 16 nM. Besides, in test [2], the EC50 is 24 nM. Moreover, the results for the Ratio in test [3] and in test [4] were 81 and 119, respectively. On Cytochrome P450 2D6, this molecule came in with an IC50 of 8000 nM.

With `CN(C(=O)CNc1ccc(NS(C)(=O)=O)cc1)[C@H](CN1CC[C@H](O)C1)c1ccccc1`, the results for the Ki (in test [1]; at Mu-type opioid receptor) were 5.7 nM and more than 5000 nM, respectively. The EC50 in test [2] is 14 nM. Also, the Ratio was more than 877 in test [3] and 47 in test [4].

In turn, `CN(C(=O)CNc1ccc([N+](=O)[O-])cc1)[C@H](CN1CC[C@H](O)C1)c1ccccc1` yielded a Ki in test [1] of 0.21 nM. A half-maximal effect in test [2] (EC50) was put at 0.23 nM. Further, the results for the Ratio in test [3] and in test [4] were 905 and 119, respectively. In addition, on Cytochrome P450 2D6, 3400 nM corresponded to half-maximal inhibition (IC50).

The molecule `CN(CC(=O)N(C)[C@H](CN1CC[C@H](O)C1)c1ccccc1)c1ccc(C#N)cc1` returned a Ki in test [1] of 1 nM. This molecule also came in with an EC50 in test [2] of 2.3 nM. Besides, the Ratio amounted to 250 in test [3] and 180 in test [4]. At Cytochrome P450 2D6, this molecule showed an IC50 of 670 nM.

In test [1], `CN(C(=O)CNc1cccc(CNS(C)(=O)=O)c1)[C@H](CN1CC[C@H](O)C1)c1ccccc1` came in with a Ki of 3.9 nM. The molecule further returned an EC50 in test [2] of 4.8 nM. The Ratio in test [3] and in test [4] was 38 in each case. On Cytochrome P450 2D6, this molecule registered a half-inhibitory concentration (IC50) of 8700 nM.

With `CN(C(=O)CNc1ccc(C#N)cc1)[C@H](CN1CC[C@H](O)C1)c1ccccc1`, the Ki in test [1] was 0.66 nM. For the same molecule, the EC50 in test [2] stood at 0.49 nM. Besides, the Ratio in test [3] was 833; in test [4], 409. The molecule also showed an IC50 at Cytochrome P450 2D6 of 2500 nM.

For the molecule `CN(C(=O)CNc1ccc(C(F)(F)F)cc1)[C@H](CN1CC[C@H](O)C1)c1ccccc1`, in test [1], the Ki turned out to be 0.39 nM. For the same molecule, a half-maximal effect in test [2] (EC50) was put at 0.8 nM. Besides, the Ratio is 385 in test [3] and 256 in test [4]. This molecule also returned an IC50 at Cytochrome P450 2D6 of 190 nM.

As for `CC(=O)N(CC(=O)N(C)[C@H](CN1CC[C@H](O)C1)c1ccccc1)c1ccccc1`, the Ki in test [1] is 3.8 nM; at Mu-type opioid receptor, more than 5000 nM. The molecule also returned an EC50 in test [2] of 7.4 nM. Besides, the Ratio in test [3] was more than 1320; in test [4], 342. On Cytochrome P450 2D6, the IC50 was determined as 300 nM.

On to `CN(C(=O)CNc1ccccc1)[C@H](CN1CC[C@H](O)C1)c1ccccc1`, for which, in the test filed under Rattus norvegicus, the Activity came out at 96.2%. Besides, the ED50 in the test on Mus musculus amounted to 0.017 mg/kg. Further, the Ratio in test [3] came to 5880; in test [4], 512. The molecule further came in with an IC50 on Cytochrome P450 2D6 of 4100 nM.

`CCCS(=O)(=O)Nc1ccc(NCC(=O)N(C)[C@H](CN2CC[C@H](O)C2)c2ccccc2)cc1`: the Ki in test [1] was found to be 1.5 nM. In addition, in test [2], the midpoint of the response, the EC50, lay at 8.3 nM. The Ratio came to 1000 in test [3] and 87 in test [4]. The same molecule displayed an IC50 against Cytochrome P450 2D6 of 9000 nM.

As to `CN(C(=O)CNc1ccccc1C#N)[C@H](CN1CC[C@H](O)C1)c1ccccc1`, the Ki in test [1] was determined as 0.39 nM. Moreover, in test [2], the EC50 is 0.42 nM. Besides, the Ratio came out at 667 in test [3] and 49 in test [4]. On Cytochrome P450 2D6, the IC50 was determined as 510 nM.
